For 18 compounds, IC50 results are on record in patent publication US20100216767A1, “QUINAZOLINES FOR PDK1 INHIBITION” (priority 2006, published 2010).

Some results are limits rather than exact numbers.

The target of the experiment is T1, PDK1 kinase (Homo sapiens, UniProt O15530).
T1 sequence (O15530 1-556): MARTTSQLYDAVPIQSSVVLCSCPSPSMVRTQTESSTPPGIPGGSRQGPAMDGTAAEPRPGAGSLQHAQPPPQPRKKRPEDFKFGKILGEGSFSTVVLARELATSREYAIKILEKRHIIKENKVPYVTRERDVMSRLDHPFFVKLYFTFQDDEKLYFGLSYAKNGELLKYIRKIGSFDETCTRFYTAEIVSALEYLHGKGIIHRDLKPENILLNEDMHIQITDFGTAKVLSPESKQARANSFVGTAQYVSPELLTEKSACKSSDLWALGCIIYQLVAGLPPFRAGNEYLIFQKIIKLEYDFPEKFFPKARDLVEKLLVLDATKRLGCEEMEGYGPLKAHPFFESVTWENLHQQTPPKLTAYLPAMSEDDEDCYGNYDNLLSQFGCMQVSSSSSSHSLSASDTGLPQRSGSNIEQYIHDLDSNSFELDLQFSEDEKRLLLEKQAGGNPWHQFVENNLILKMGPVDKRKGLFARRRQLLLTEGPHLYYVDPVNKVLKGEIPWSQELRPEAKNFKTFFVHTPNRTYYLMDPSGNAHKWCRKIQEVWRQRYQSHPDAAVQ
Briefly: PDK1 Kinase Alpha Screen Assay. It counts as biochemical. As to conditions: Table 1; 10 μM ATP, 50 nM PDK1-4 peptide. How it is done:
Reagents/Concentrations: The PDK1-4 peptide substrate, biotin-[…]-NH2, (SEQ ID NO: 1), was purchased from the Tufts University Core Facility. The final concentration of PDK1-4 peptide substrate was 50 nM. The ATP substrate (adenosine-[…] triphosphate) was purchased from Roche Diagnostics. The final concentration of ATP substrate was 10 μM. Phospho-(Ser/Thr) PKA substrate antibody was purchased from Cell Signaling Technology. The final concentration of antibody was 0.3 mg/mL. The Alpha Screen Protein A detection kit containing donor and acceptor beads was purchased from PerkinElmer Life Sciences. The final concentration of both donor and acceptor beads was 25 μg/mL. Alpha Screen was used for detection. The biotinylated-PDK1-4 peptide was phosphorylated by PDK1 kinase using the ATP substrate. The biotinylated-PDK1-4 peptide substrate was bound to the streptavidin coated donor bead. The antibody was bound to the protein A coated acceptor bead. The antibody bound to the phosphorylated form of the biotinylated PDK-1 peptide substrate, bringing the donor and acceptor beads into close proximity. Laser irradiation of the donor bead at 680 nm generated a flow of short-lived singlet oxygen molecules. When the donor and acceptor beads were in close proximity, the reactive oxygen generated by the irradiation of the donor beads initiated a luminescence/fluorescence cascade in the acceptor beads. This process led to a highly amplified signal with output in the 530-620 nm range. Assays were carried out in 50 mM Tris, pH=7.5, 10 mM MgCl2, 0.1% BSA, 0.01% Tween-20, 2 mM dithiolthreitol, 2.5% dimethyl sulfoxide. Reactions were stopped by adding 50 mM Tris, pH=7.5, 90 mM EDTA, 0.1% BSA, 0.01% Tween-20.
Procedure: To 10 μl, of PDK1-4 peptide, […] of test compound in dimethyl sulfoxide was added. PDK1 kinase and ATP were mixed, and 10 μL of the PDK1 kinase/ATP mix was added to start the reaction. The reaction was allowed to proceed for 3-18 hours. The reactions were then stopped by adding 10 μL of the EDTA-containing stop buffer. Beads were mixed with antibody, and 25 μL of the bead/antibody mix was then added to the stopped reactions. Plates were incubated at room temperature overnight to allow for detection development before being read. The assay was run in a 384-well format plate.

As to `Cc1ccc2nc(Nc3ccc(S(N)(=O)=O)cc3)ncc2c1` [Example 54, 4-(6-methylquinazolin-2-ylamino)benzene-sulfonamide], the IC50 (as a rule, the midpoint of a concentration-inhibition curve) was less than 5 µM.

In the case of `Cn1cc(-c2ccc3nc(Nc4ccc(S(N)(=O)=O)cc4)ncc3c2)cn1` [Example 56, 4-(6-(1-methyl-1H-pyrazol-4-yl)quinazolin-2-ylamino)benzene-sulfonamide], the IC50 is less than 5 µM.

Compound `C#Cc1ccc2nc(Nc3ccc(N4CCOCC4)cc3)ncc2c1` [Example 57, 6-ethynyl-N-(4-morpholinophenyl)-quinazolin-2-amine] showed an IC50 of less than 5 µM.

Compound `C#Cc1ccc2nc(Nc3ccc(C(N)=O)cc3)ncc2c1` [Example 58, 4-(6-ethynylquinazolin-2-ylamino)benzamide] gave an IC50 of less than 5 µM.

Regarding `C#Cc1ccc2nc(Nc3cccc(C(N)=O)c3)ncc2c1` [Example 59, 3-(6-ethynylquinazolin-2-ylamino)benzamide], the concentration for half-maximal inhibition (IC50) is less than 5 µM.

`C#Cc1ccc2nc(Nc3cccc(S(N)(=O)=O)c3)ncc2c1` [Example 60, 3-(6-ethynylquinazolin-2-ylamino)benzene-sulfonamide] showed an IC50 of less than 5 µM.

Compound `C#Cc1ccc2nc(Nc3cccc(NS(C)(=O)=O)c3)ncc2c1` [Example 61, N-(3-(6-ethynylquinazolin-2-ylamino)phenyl)-methane-sulfonamide] displayed a concentration for half-maximal inhibition (IC50) of less than 5 µM.

The compound `COc1cc(-c2cnn(C)c2)cc2cnc(Nc3ccc(S(N)(=O)=O)cc3)nc12` [Example 62, 4-(8-methoxy-6-(1-methyl-1H-pyrazol-4-yl)-quinazolin-2-ylamino)-benzenesulfonamide] came in with a concentration for half-maximal inhibition (IC50) of less than 5 µM.

Consider `COc1cc(-c2nccs2)cc2cnc(Nc3ccc(S(N)(=O)=O)cc3)nc12` [Example 63, 4-(8-methoxy-6-(thiazol-2-yl)quinazolin-2-ylamino)-benzenesulfonamide], for which the IC50 was less than 5 µM.

`COc1cc(C#CC(C)(C)O)cc2cnc(Nc3ccc(S(N)(=O)=O)cc3)nc12` [Example 65, 4-(6-(3-hydroxy-3-methylbut-1-ynyl)-8-methoxyquinazolin-2-ylamino)benzenesulfonamide]: the 50% inhibitory concentration (IC50) was less than 5 µM.

In turn, `COc1cc(C#CC(C)(C)N)cc2cnc(Nc3ccc(S(N)(=O)=O)cc3)nc12` [Example 66, 4-(6-(3-amino-3-methylbut-1-ynyl)-8-methoxyquinazolin-2-ylamino)benzenesulfonamide] had an IC50 of 10 to 25 µM.

For the compound `NS(=O)(=O)c1ccc(Nc2ncc3cc(-c4cc[nH]n4)ccc3n2)cc1` [Example 67, 4-(6-(1H-pyrazol-3-yl)-quinazolin-2-ylamino)-benzenesulfonamide], the IC50 was less than 5 µM.

With `CC(=O)Nc1ccc2nc(Nc3ccc(S(N)(=O)=O)cc3)ncc2c1` [Example 68, N-(2-(4-Sulfamoylphenylamino)quinazolin-6-yl)acetamide], the 50% inhibitory concentration (IC50) was less than 5 µM.

`C#Cc1cc2cnc(Nc3ccc(N4CCOCC4)cc3)nc2cc1OC` [Example 69, 6-ethynyl-7-methoxy-N-(4-morpholinophenyl)-quinazolin-2-amine] gave an IC50 of less than 5 µM.

In turn, `C#Cc1cc(OC)c2nc(Nc3ccc(N4CCOCC4)cc3)ncc2c1` [Example 70, 6-ethynyl-8-methoxy-N-(4-morpholinophenyl)-quinazolin-2-amine] showed a 50% inhibitory concentration (IC50) of less than 5 µM.

On to `C#Cc1ccc2nc(Nc3cccc(CN(C)C)c3)ncc2c1` [Example 71, N-(3-((dimethylamino)-methyl)phenyl)-6-ethynylquinazolin-2-amine], for which the IC50 was less than 5 µM.

As to `C#Cc1ccc2nc(Nc3ccc(C(=O)NC(C)C)cc3)ncc2c1` [Example 72, 4-(6-ethynylquinazolin-2-ylamino)-N-isopropyl-benzamide], the IC50 is less than 5 µM.

`C#Cc1cc2cnc(Nc3ccc(C(=O)NC(C)C)cc3)nc2cc1OC` [Example 73, 4-(6-ethynyl-7-methoxy-quinazolin-2-ylamino)-N-isopropylbenzamide] came in with an IC50 of less than 5 µM.
